According to patent US20030065030A1, “Autonomic controlling agents and health drinks and foods” (priority 2001, published 2003):

Experiments:
[1] = tested on: autonomic nervous system in humans; assay: autonomic nerve activity in humans by ECG R-R interval power spectral analysis; type: in vivo, human; conditions: for mean promotion ratio of the overall autonomic nerve activity / mean promotion ratio of the parasympathetic nerve activity: responding subjects
Method: The resting ECG of the subjects was measured for 5 minutes, and ECG was measured for 5 minutes at 30 minutes and 60 minutes after drinking the test sample, respectively. In order to avoid influences by changes in respiration, ECG was measured when the subjects were forced to respire at 15 respirations per minute. The intervals between R-waves (R-R intervals) of the ECG were determined, and were subjected to a power spectral analysis according to the program prepared by Moritani et al. (J. Sport Med. Sci. 7:31-39, 1993). For cycle components, in conformity to the classification criteria of the Cardiology society in Europe and the USA (Circulation 93:1043-1065, 1996), heart rate variation was divided into the low frequency (0.03-0.15 Hz) and the high frequency (0.15-0.4 Hz).
Carnosine was weighed out on a chartula at 0.04 mg, 0.2 mg, 1 mg, 5 mg, and 25 mg/capita. For 0.2 mg, one mg of a 1:4 mixture of carnosine and starch powder (⅕ dilution) was weighed out. For 0.04 mg, one mg of a 1:4 mixture of carnosine and starch powder that further mixed with the starch powder at 1:4 ( 1/25 dilution) was weighed out. Carnosine was taken by licking the one weighed out on chartula.
There were 8 subjects, 21-51 years old (33.0 +/− 11.95 years old) and weighing 54-73.5 kg (64.3 +/− 7.01 kg), and among them, the experiments of the 0.04 mg and the 0.2 mg were performed on six subjects, the experiments of the 1 mg and the 5 mg were performed on 8 subjects, and the experiment of the 25 mg was performed on 5 subjects.

STZ diabetic rats = assay: anti-hyperglycemia in the STZ diabetic rats undergoing the oral glucose tolerance test; type: in vivo, rat
Method: Wistar male rats (initial weight, about 250 g) were used. They were housed in a room illuminated with an incandescent light of 80 luxes on the average for 12 hours with free access to feed, and adapted to the environment at least 10 days. Three days before the experiment, rats under anesthesia with pentobarbital (35 mg/kg body weight, intraperitoneal administration) received the insertion of a cardiac catheter comprising a silastic tubing (Dow Corning, Midland, Mich.) and a polyethylene tubing (Clay Adams, Parsippany, N.J.) into the right atrium and a polyethylene tubing into the right lateral cerebral ventricle (LCV).
Then, the STZ (streptozotocin) diabetic rats were created according to the report by Portha et al. (Diabetes 30:64-69, 1981). Streptozotocin (STZ, manufactured by Sigma) dissolved in 0.05 M citric acid solution (pH 4.5) at a concentration of […] was intraperitoneally administered at 60 mg/kg body weight. To the STZ diabetic rats thus created, an aqueous solution of glucose dissolved at 0.5 g/ml was orally administered at 1 ml (0.5 g) per animal (oral glucose load). Simultaneously with the glucose load, carnosine dissolved in physiological saline was administered to the rats intracranially (0.01 ml) or intraperitoneally (0.1 ml).
The oral administration employed a sonde, and the intracranially administration was performed via a LVC polyethylene tube and the intraperitoneal administration employed an injection syringe and a needle. The control rats received physiological saline instead of carnosine, and an artificial cerebrospinal fluid instead of 2DG, each at the same amount. Before and at 15, 30, 60, and 90 minutes after the oral administration of glucose, 300 μl of blood was taken via the cardiac catheter and the glucose concentrations in the plasma (blood glucose levels) were determined. The glucose concentration in the plasma at the time of carnosine administration was calculated as a ratio (%) relative to the plasma glucose concentration before glucose administration set at 100. Four or five rats were used in the experiment. Data were tested with ANOVA (p<0.05) and were expressed as mean +/− standard error.

2DG hyperglycemic rats = assay: anti-hyperglycemia in the 2DG hyperglycemic rats; type: in vivo, rat
Description: Since blood glucose levels are expected to be reduced when the activity of the autonomic nervous system is controlled by carnosine at a low dose, the effect of carnosine on anti-hyperglycemia in the 2DG hyperglycemic rats was investigated according to the method of Chun et al. (Brain Research 809:165-174, 1998). Wistar male rats (initial weight, about 250 g) were used that had been acclimated for at least 10 days to an environment in a room illuminated with an incandescent light of 80 lux on the average for 12 hours at room temperature (24 +/− 1° C.) with free access to the feed.
Three days before the experiment, rats under anesthesia with pentobarbital (35 mg/kg body weight, intraperitoneal administration) received the insertion of a cardiac catheter comprising a silastic tubing (Dow Corning, Midland, Mich.) and a polyethylene tubing (Clay Adams, Parsippany, N.J.) into the right atrium and a polyethylene tubing into the right lateral cerebral ventricle (LCV). On the day of the experiment, carnosine dissolved in physiological saline was administered to the rats intracranially (0.01 ml) or intraperitoneally (0.1 ml) with the simultaneous administration into the rat LCV of 80 μmol 2-deoxy-D-glucose (2DG, 0.01 ml). The control rats received physiological saline instead of carnosine and an artificial cerebrospinal fluid in stead of 2DG, each at the same amount.
Sixty minutes after the administration of 2DG into the LCV, 300 μl of blood was taken via the cardiac catheter and the plasma level of glucose was determined. The glucose concentrations in the plasma were measured using the Fuji-Dri-chem system (Fuji Film Tokyo) according to the glucose oxidase method. Changes in plasma concentrations of glucose were expressed as a ratio (%) relative to the control value at 90 minutes after 2DG administration set at 100. Four or five rats were used in the experiments. Data were tested with ANOVA (p<0.05) and were expressed as mean +/− standard error.

[2] = 0.04 mg oral ingestion, the one responding subject

NCCC(=O)N[C@@H](Cc1cnc[nH]1)C(=O)O [carnosine, β-alanyl-L-histidine]
ratio of those who exhibited promotion (more than 200% of the previous value of the parasympathetic nerve activity) ([1]; 0.04 mg oral ingestion): 16.7%
promotion ratio of the overall autonomic nerve activity [1, 2]: 195%
promotion ratio of the parasympathetic nerve activity [1, 2]: 249%
ratio of those who exhibited promotion (more than 200% of the previous value of the parasympathetic nerve activity) ([1]; 0.2 mg oral ingestion): 66.7%
mean promotion ratio of the overall autonomic nerve activity ([1]; 0.2 mg oral ingestion): 329%
mean promotion ratio of the parasympathetic nerve activity ([1]; 0.2 mg oral ingestion): 436%
ratio of those who exhibited promotion (more than 200% of the previous value of the parasympathetic nerve activity) ([1]; 1 mg oral ingestion): 37.5%
mean promotion ratio of the overall autonomic nerve activity ([1]; 1 mg oral ingestion): 190%
mean promotion ratio of the parasympathetic nerve activity ([1]; 1 mg oral ingestion): 259%
ratio of those who exhibited promotion (more than 200% of the previous value of the parasympathetic nerve activity) ([1]; 5 mg oral ingestion): 25.0%
mean promotion ratio of the overall autonomic nerve activity ([1]; 5 mg oral ingestion): 410%
mean promotion ratio of the parasympathetic nerve activity ([1]; 5 mg oral ingestion): 472%
ratio of those who exhibited promotion (more than 200% of the previous value of the parasympathetic nerve activity) ([1]; 25 mg oral ingestion): 0%
suppression rate of increase in blood glucose by oral glucose load (STZ diabetic rats; 10 ng intracranial, 15 minutes): 14.5%
suppression rate of increase in blood glucose by oral glucose load (STZ diabetic rats; 10 ng intracranial, 30 minutes): 17.3%
suppression rate of increase in blood glucose by oral glucose load (STZ diabetic rats; 10 ng intracranial, 60 minutes): 14.7%
suppression rate of increase in blood glucose by oral glucose load (STZ diabetic rats; 10 ng intracranial, 90 minutes): 11.4%
suppression rate of increase in blood glucose by oral glucose load (STZ diabetic rats; 100 ng intraperitoneal, 60 minutes): 14.3%
suppression rate of increase in blood glucose by oral glucose load (STZ diabetic rats; 100 ng intraperitoneal, 90 minutes): 12.4%
effect on hyperglycemia (2DG hyperglycemic rats; 10 ng intracranially administered): suppressed hyperglycemia
suppression rate of hyperglycemia (plasma glucose) (2DG hyperglycemic rats; 10 ng intraperitoneal): 16.0%
suppression rate of hyperglycemia (plasma glucose) (2DG hyperglycemic rats; 100 ng intraperitoneal): 31.5%
suppression rate of hyperglycemia (plasma glucose) (2DG hyperglycemic rats; 1,000 ng intraperitoneal): 26.8%
suppression rate of hyperglycemia (plasma glucose) (2DG hyperglycemic rats; 10,000 ng intraperitoneal): 27.6%
suppression rate of hyperglycemia (plasma glucose) (2DG hyperglycemic rats; 100,000 ng intraperitoneal): 21.9%
hypoglycemic action (2DG hyperglycemic rats; high dose of 1,000,000 ng (3.3 mg/kg body weight) intraperitoneal): did not show any hypoglycemic action
